From US20090069320A1, “Substituted 4-Amino-Quinazoline Compounds with Metabotropic Glutamate Receptor Regulating Activity and Uses Thereof” (Gruenenthal GmbH, priority 2006, published 2009)

Target: T1, mGluR5 receptor (Sus scrofa, UniProt I3LUI7)
T1 construct: 450 μg of protein from brain homogenate with 5 nM ^3[H]-MPEP; from tissue; host or cells: pig brain halves without medulla, cerebellum and pons
Assay: [3H]-MPEP mGluR5 receptor binding assay (pig brain homogenate)
Conditions: 5 nM [3H]-MPEP; for inhibition at 10 µM / % Inhibition of mGluR5 Receptor (pig) [^3H]-MPEP Bond at 10 μM: 10 μM compound; for inhibition at 10 µM: read-out: % Inhibition of mGluR5 Receptor (pig) [^3H]-MPEP Bond at 10 μM
Outline: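 Radioligand displacement of 5 nM [3H]-MPEP from pig brain homogenate (450 μg protein; medulla, cerebellum and pons removed) in 20 mM Hepes pH 8.0. Compounds were tested at 10 μM, incubated 60 min at room temperature, then filtered and counted by scintillation. Non-specific binding was defined with 10 μM MPEP.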

T1 sequence (I3LUI7 19-1212): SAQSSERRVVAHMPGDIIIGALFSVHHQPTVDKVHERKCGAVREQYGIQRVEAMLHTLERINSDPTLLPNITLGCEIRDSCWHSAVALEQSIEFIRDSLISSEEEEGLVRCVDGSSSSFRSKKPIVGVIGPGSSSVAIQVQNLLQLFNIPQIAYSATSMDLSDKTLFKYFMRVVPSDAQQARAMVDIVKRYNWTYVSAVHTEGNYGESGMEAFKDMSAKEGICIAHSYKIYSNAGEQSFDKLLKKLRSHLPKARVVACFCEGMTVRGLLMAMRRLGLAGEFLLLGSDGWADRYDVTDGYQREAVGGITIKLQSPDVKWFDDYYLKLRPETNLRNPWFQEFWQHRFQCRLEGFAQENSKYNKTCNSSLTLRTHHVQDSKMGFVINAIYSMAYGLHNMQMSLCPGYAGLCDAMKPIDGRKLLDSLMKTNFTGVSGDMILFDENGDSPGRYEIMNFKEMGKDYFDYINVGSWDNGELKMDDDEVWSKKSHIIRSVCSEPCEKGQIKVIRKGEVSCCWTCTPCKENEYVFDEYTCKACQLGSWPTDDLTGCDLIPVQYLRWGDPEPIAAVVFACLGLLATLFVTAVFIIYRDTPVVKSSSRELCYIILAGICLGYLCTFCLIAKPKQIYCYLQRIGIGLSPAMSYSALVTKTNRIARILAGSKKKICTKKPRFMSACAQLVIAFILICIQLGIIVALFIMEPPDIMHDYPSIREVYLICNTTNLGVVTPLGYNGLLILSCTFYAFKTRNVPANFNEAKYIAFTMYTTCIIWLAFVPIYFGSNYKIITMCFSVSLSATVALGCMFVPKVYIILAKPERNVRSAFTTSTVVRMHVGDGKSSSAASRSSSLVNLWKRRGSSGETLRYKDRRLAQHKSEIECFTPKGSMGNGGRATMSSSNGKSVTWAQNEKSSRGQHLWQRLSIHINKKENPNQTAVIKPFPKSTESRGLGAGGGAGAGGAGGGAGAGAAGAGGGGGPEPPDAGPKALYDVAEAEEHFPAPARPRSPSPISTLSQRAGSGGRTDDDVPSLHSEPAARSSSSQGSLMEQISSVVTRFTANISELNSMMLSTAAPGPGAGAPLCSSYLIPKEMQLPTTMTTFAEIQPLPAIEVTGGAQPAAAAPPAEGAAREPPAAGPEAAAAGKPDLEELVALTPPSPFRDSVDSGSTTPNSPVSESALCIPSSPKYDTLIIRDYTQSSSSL

Structure (SMILES)	inhibition at 10 µM [%]	% Inhibition of mGluR5 Receptor (pig) [^3H]-MPEP Bond at 10 μM [%]	other results
O=C(c1ccco1)N(Cc1cc(-c2ccc3ncnc(NC4CC4)c3c2)ccc1Cl)C1CC1 [Example 746, N-(2-chloro-5-(4-(cyclopropylamino)quinazolin-6-yl)benzyl)-N-cyclopropylfuran-2-carboxamide]	93	–	–
O=C(c1cc(Cl)cc(Cl)c1)N(Cc1cc(-c2ccc3ncnc(NC4CC4)c3c2)ccc1Cl)C1CC1 [Example 747, 3,5-dichloro-N-(2-chloro-5-(4-(cyclopropylamino)quinazolin-6-yl)benzyl)-N-cyclopropylbenzamide]	52	–	–
O=C(Cc1ccccc1)N(Cc1cc(-c2ccc3ncnc(NC4CC4)c3c2)ccc1Cl)C1CC1 [Example 748, N-(2-chloro-5-(4-(cyclopropylamino)quinazolin-6-yl)benzyl)-N-cyclopropyl-2-phenylacetamide]	66	–	–
O=C(c1ccccc1C(F)(F)F)N(Cc1cc(-c2ccc3ncnc(NC4CC4)c3c2)ccn1)C1CC1 [Example 749, N-cyclopropyl-N-((4-(4-(cyclopropylamino)quinazolin-6-yl)pyridin-2-yl)methyl)-2-(trifluoromethyl)benzamide]	65	–	–
O=C(c1cc(Cl)cc(Cl)c1)N(Cc1cc(-c2ccc3ncnc(NC4CC4)c3c2)ccn1)C1CC1 [Example 750, 3,5-dichloro-N-cyclopropyl-N-((4-(4-(cyclopropylamino)quinazolin-6-yl)pyridin-2-yl)methyl)benzamide]	42	–	–
O=C(c1cccs1)N(Cc1cc(-c2ccc3ncnc(NC4CC4)c3c2)ccc1Cl)C1CC1 [Example 754, N-(2-chloro-5-(4-(cyclopropylamino)quinazolin-6-yl)benzyl)-N-cyclopropylthiophene-2-carboxamide]	95	–	–
O=C(CCc1ccccc1)N(Cc1cc(-c2ccc3ncnc(NC4CC4)c3c2)ccc1Cl)C1CC1 [Example 756, N-(2-chloro-5-(4-(cyclopropylamino)quinazolin-6-yl)benzyl)-N-cyclopropyl-3-phenylpropanamide]	69	–	–
O=S(=O)(c1c(F)c(F)c(F)c(F)c1F)N(Cc1cccc(-c2cc(F)c3ncnc(NC4CC4)c3c2)c1)C1CC1 [Example 761, N-cyclopropyl-N-(3-(4-(cyclopropylamino)-8-fluoroquinazolin-6-yl)benzyl)-2,3,4,5,6-pentafluorobenzole sulfonamide]	–	45	–
O=C(c1ccno1)N(Cc1cc(-c2ccc3ncnc(NC4CC4)c3c2)ccc1Cl)C1CC1 [Example 762, N-(2-chloro-5-(4-(cyclopropylamino)quinazolin-6-yl)benzyl)-N-cyclopropyl isoxazole-5-carboxamide]	–	91	–
CS(=O)(=O)N(Cc1cc(-c2ccc3ncnc(NC4CC4)c3c2)ccc1Cl)C1CC1 [Example 764, N-(2-chloro-5-(4-(cyclopropylamino)quinazolin-6-yl)benzyl)-N-cyclopropyl methane sulfonamide]	–	87	–
Cc1cc2ncnc(NC3CC3)c2cc1-c1cccc(CN(C(=O)c2c(F)c(F)c(F)c(F)c2F)C2CC2)c1 [Example 768, N-cyclopropyl-N-(3-(4-(cyclopropylamino)-7-methylquinazolin-6-yl)benzyl)-2,3,4,5,6-pentafluorobenzamide]	88	–	–
Cc1nc(C(=O)N(Cc2cc(-c3ccc4ncnc(NC5CC5)c4c3)ccc2Cl)C2CC2)cs1 [Example 769, N-(2-chloro-5-(4-(cyclopropylamino)quinazolin-6-yl)benzyl)-N-cyclopropyl-2-methylthiazole-4-carboxamide]	83	–	–
O=S(=O)(Cc1ccccc1)N(Cc1cc(-c2ccc3ncnc(NC4CC4)c3c2)ccc1Cl)C1CC1 [Example 771, N-(2-chloro-5-(4-(cyclopropylamino)quinazolin-6-yl)benzyl)-N-cyclopropyl-1-phenylmethane sulfonamide]	80	–	–
CC(=O)N(Cc1cc(-c2ccc3ncnc(NC4CC4)c3c2)ccn1)C1CC1 [Example 773, N-cyclopropyl-N-((4-(4-(cyclopropylamino)quinazolin-6-yl)pyridin-2-yl)methyl)acetamide]	74	–	–
Cc1cc(C(=O)N(Cc2cc(-c3ccc4ncnc(NC5CC5)c4c3)ccc2Cl)C2CC2)n(C)n1 [Example 776, N-(2-chloro-5-(4-(cyclopropylamino)quinazolin-6-yl)benzyl)-N-cyclopropyl-1,3-dimethyl-1H-pyrazole-5-carboxamide]	55	–	–
CC(=O)N(Cc1cc(-c2ccc3ncnc(NC4CC4)c3c2)ccc1Cl)C1CC1 [Example 777, N-(2-chloro-5-(4-(cyclopropylamino)quinazolin-6-yl)benzyl)-N-cyclopropyl acetamide]	–	–	IC50 (read-out: IC50 mGluR5 Receptor (pig) [^3H]-MPEP Bond): 50 nM
O=S(=O)(c1cccc(C(F)(F)F)c1)N(Cc1cc(-c2ccc3ncnc(NC4CC4)c3c2)ccc1Cl)C1CC1 [Example 778, N-(2-chloro-5-(4-(cyclopropylamino)quinazolin-6-yl)benzyl)-N-cyclopropyl-3-(trifluoromethyl)benzole sulfonamide]	–	84	–
COc1ccc(C(=O)N(Cc2cc(-c3ccc4ncnc(NC5CC5)c4c3)ccc2Cl)C2CC2)cc1OC [Example 784, N-(2-chloro-5-(4-(cyclopropylamino)quinazolin-6-yl)benzyl)-N-cyclopropyl-3,4-dimethoxybenzamide]	56	–	–
CC(C)(C)C(=O)N(Cc1cc(-c2ccc3ncnc(NC4CC4)c3c2)ccc1Cl)C1CC1 [Example 785, N-(2-chloro-5-(4-(cyclopropylamino)quinazolin-6-yl)benzyl)-N-cyclopropyl pivalamide]	–	100	–
COc1ccc(S(=O)(=O)N(Cc2cc(-c3ccc4ncnc(NC5CC5)c4c3)ccc2Cl)C2CC2)cc1 [Example 786, N-(2-chloro-5-(4-(cyclopropylamino)quinazolin-6-yl)benzyl)-N-cyclopropyl-4-methoxybenzole sulfonamide]	–	95	–
O=S(=O)(c1cccs1)N(Cc1cc(-c2ccc3ncnc(NC4CC4)c3c2)ccn1)C1CC1 [Example 788, N-cyclopropyl-N-((4-(4-(cyclopropylamino)quinazolin-6-yl)pyridin-2-yl)methyl)thiophene-2-sulfonamide]	77	–	–

Continued, in another order:

inhibition at 10 µM [%]	% Inhibition of mGluR5 Receptor (pig) [^3H]-MPEP Bond at 10 μM [%]	Structure (SMILES)	other results
53	–	CN(C)CC(=O)N(Cc1cccc(-c2cc(F)c3ncnc(NC4CC4)c3c2)c1)C1CC1 [Example 751, N-cyclopropyl-N-(3-(4-(cyclopropylamino)-8-fluoroquinazolin-6-yl)benzyl)-2-(dimethylamino)acetamide]	–
62	–	O=C(c1c(F)c(F)c(F)c(F)c1F)N(Cc1cccc(-c2cc(F)c3ncnc(NC4CC4)c3c2)c1)C1CC1 [Example 752, N-cyclopropyl-N-(3-(4-(cyclopropylamino)-8-fluoroquinazolin-6-yl)benzyl)-2,3,4,5,6-pentafluorobenzamide]	–
78	–	O=C(c1ccccn1)N(Cc1cc(-c2ccc3ncnc(NC4CC4)c3c2)ccc1Cl)C1CC1 [Example 755, N-(2-chloro-5-(4-(cyclopropylamino)quinazolin-6-yl)benzyl)-N-cyclopropylpicolinamide]	–
83	–	Cc1nc(C(=O)N(Cc2cccc(-c3cc4c(NC5CC5)ncnc4cc3C)c2)C2CC2)cs1 [Example 759, N-cyclopropyl-N-(3-(4-(cyclopropylamino)-7-methylquinazolin-6-yl)benzyl)-2-methylthiazole-4-carboxamide]	–
93	–	Cc1cc(C(=O)N(Cc2cccc(-c3cc(F)c4ncnc(NC5CC5)c4c3)c2)C2CC2)n(C)n1 [Example 760, N-cyclopropyl-N-(3-(4-(cyclopropylamino)-8-fluoroquinazolin-6-yl)benzyl)-1,3-dimethyl-1H-pyrazole-5-carboxamide]	–
–	86	O=C(c1ccncc1)N(Cc1cc(-c2ccc3ncnc(NC4CC4)c3c2)ccc1Cl)C1CC1 [Example 763, N-(2-chloro-5-(4-(cyclopropylamino)quinazolin-6-yl)benzyl)-N-cyclopropyl isonicotinamide]	–
–	84	O=C(c1cccnc1)N(Cc1cc(-c2ccc3ncnc(NC4CC4)c3c2)ccc1Cl)C1CC1 [Example 770, N-(2-chloro-5-(4-(cyclopropylamino)quinazolin-6-yl)benzyl)-N-cyclopropyl nicotinamide]	–
76	–	O=C(c1ccno1)N(Cc1cccc(-c2cc(F)c3ncnc(NC4CC4)c3c2)c1)C1CC1 [Example 775, N-cyclopropyl-N-(3-(4-(cyclopropylamino)-8-fluoroquinazolin-6-yl)benzyl)isoxazole-5-carboxamide]	–
67	–	O=C(c1cccnc1)N(Cc1cccc(-c2cc(F)c3ncnc(NC4CC4)c3c2)c1)C1CC1 [Example 781, N-cyclopropyl-N-(3-(4-(cyclopropylamino)-8-fluoroquinazolin-6-yl)benzyl)nicotinamide]	–
–	50	O=S(=O)(c1ccc(Cl)cc1Cl)N(Cc1cccc(-c2cc(F)c3ncnc(NC4CC4)c3c2)c1)C1CC1 [Example 782, 2,4-dichloro-N-cyclopropyl-N-(3-(4-(cyclopropylamino)-8-fluoroquinazolin-6-yl)benzyl)benzole sulfonamide]	–
–	93	O=C(c1ccccc1)N(Cc1cc(-c2ccc3ncnc(NC4CC4)c3c2)ccc1Cl)C1CC1 [Example 783, N-(2-chloro-5-(4-(cyclopropylamino)quinazolin-6-yl)benzyl)-N-cyclopropyl benzamide]	–
